# Laboratory results taken from patent EP1152011A1, “PEPTIDES INHIBITING VASCULAR ENDOTHELIAL CELL MIGRATION” (KYOWA HAKKO KOGYO CO., LTD., priority 1999, dated 2000).
# Residues, ends and D or L forms follow the SMILES beside them.
# System: Swine aorta endothelial cells
# Assay: Measurement of activity inhibiting swine vascular endothelial cell migration
# Type: cell-based
# Conditions: test compound at 10 µmol/L; 6 hours pre-culture, cells scraped off with razor blade, then 24 hours culture; 0.1% bovine serum albumin-containing Dulbecco's modified Eagle medium; value ± SD
# Excerpt: Measurement of activity inhibiting swine vascular endothelial cell migration: Swine aorta endothelial cells (5th to 7th generations) were suspended in the 10% fetus calf serum-containing Dulbecco's modified Eagle medium and inoculated at a cell density of 32,000 cells/cm^2 in a 6-well plate, for culturing until the cells formed a single layer over the whole bottom of the culture dish. Subsequently, the culture broth was exchanged to the 0.1% bovine serum albumin-containing Dulbecco's modified Eagle medium containing a test compound at a concentration of 10 µmol/L, followed by culturing for 6 hours. Then, a part of the cells on the bottom of the culture dish was scraped off using a razor blade. Subsequently, the culture broth was exchanged to the 0.1% bovine serum albumin-containing Dulbecco's modified Eagle medium containing a test compound in a concentration of 10 µmol/L, followed by culturing for 24 hours. After immobilizing the cells, the number of the cells which had migrated on the bottom portion of the culture dish, where a part of the cells had been scraped off, was counted. The inhibition ratio of cell migration was calculated by the following equation. Inhibition ratio of cell migration (%) = (1 - the number of cells which had migrated in the presence of the test compound/the number of cells which had migrated in the absence of the test compound) × 100 [formula]
row,SMILES,Inhibition ratio of cell migration (%) ± SD
1,"CC[C@H](C)[C@H](NC(=O)[C@H](CCCNC(=N)N)NC(=O)[C@H](C)NC(=O)[C@H](CCCCN)NC(=O)[C@H](CCCCN)NC(=O)[C@H](CCCNC(=N)N)NC(=O)[C@H](CCC(N)=O)NC(=O)[C@@H](NC(=O)[C@@H](NC(=O)[C@H](CCC(=O)O)NC(=O)[C@@H]1CCCN1C(=O)[C@H](C)NC(=O)[C@@H]1CCCN1)[C@@H](C)O)C(C)C)C(=O)N[C@@H](CCCNC(=N)N)C(=O)N[C@@H](CCCCN)C(N)=O [Compound 10, H-Pro-Ala-Pro-Glu-Thr-Val-Gln-Arg-Lys-Lys-Ala-Arg-Ile-Arg-Lys-NH2] (H-PAPETVQRKKARIRK-NH2)",20.6±1.9%
2,"CSCC[C@H](N)C(=O)N[C@H](C(=O)N[C@@H](CCC(=O)O)C(=O)N[C@@H](Cc1c[nH]c2ccccc12)C(=O)NCC(=O)N[C@@H](CCC(=O)O)C(=O)N[C@@H](Cc1c[nH]c2ccccc12)C(=O)N[C@@H](CC(=O)O)C(=O)N[C@@H](CCC(=O)O)C(=O)N[C@@H](C)C(=O)N[C@@H](CO)C(=O)N[C@@H](C)C(=O)N[C@H](C(=O)N[C@@H](C)C(=O)NCC(N)=O)[C@@H](C)O)[C@@H](C)O [Compound 4, H-Met-Thr-Glu-Trp-Gly-Glu-Trp-Asp-Glu-Ala-Ser-Ala-Thr-Ala-Gly-NH2] (H-MTEWGEWDEASATAG-NH2)",7.4±13.2%
3,"CC(C)C[C@H](N)C(=O)N[C@H](C(=O)N[C@@H](CCC(=O)O)C(=O)N[C@@H](Cc1c[nH]c2ccccc12)C(=O)N[C@@H](CO)C(=O)N[C@@H](CCC(N)=O)C(=O)N[C@@H](Cc1c[nH]c2ccccc12)C(=O)N[C@@H](CO)C(=O)N[C@@H](CCC(=O)O)C(=O)N[C@@H](C)C(=O)N[C@@H](CC(N)=O)C(=O)N[C@@H](CCCCN)C(=O)N[C@@H](CO)C(=O)N[C@@H](C)C(=O)NCC(N)=O)[C@@H](C)O [Compound 5, H-Leu-Thr-Glu-Trp-Ser-Gln-Trp-Ser-Glu-Ala-Asn-Lys-Ser-Ala-Gly-NH2] (H-LTEWSQWSEANKSAG-NH2)",10.8±6.0%
4,"CSCC[C@H](N)C(=O)N[C@@H](CCCNC(=N)N)C(=O)N1CCC[C@H]1C(=O)N[C@@H](Cc1c[nH]c2ccccc12)C(=O)N[C@H](C(=O)N[C@@H](C)C(=O)N[C@@H](Cc1c[nH]c2ccccc12)C(=O)N[C@@H](CO)C(=O)N[C@@H](CCC(=O)O)C(=O)N[C@@H](C)C(=O)N[C@H](C(=O)N[C@@H](CCCCN)C(=O)N[C@@H](CC(C)C)C(=O)N[C@@H](C)C(=O)NCC(N)=O)[C@@H](C)O)[C@@H](C)O [Compound 6, H-Met-Arg-Pro-Trp-Thr-Ala-Trp-Ser-Glu-Ala-Thr-Lys-Leu-Ala-Gly-NH2] (H-MRPWTAWSEATKLAG-NH2)",5.7±8.0%
5,"CC[C@H](C)[C@H](NC(=O)[C@H](CO)NC(=O)[C@H](C)NC(=O)[C@@H]1CCCN1C(=O)[C@H](CO)NC(=O)[C@H](Cc1c[nH]c2ccccc12)NC(=O)[C@@H](NC(=O)[C@@H](NC(=O)[C@H](Cc1c[nH]c2ccccc12)NC(=O)[C@H](CCC(=O)O)NC(=O)[C@H](CO)NC(=O)[C@@H](N)CCSC)[C@@H](C)CC)[C@@H](C)O)C(=O)N[C@@H](CO)C(=O)N[C@@H](C)C(=O)NCC(N)=O [Compound 1, H-Met-Ser-Glu-Trp-Ile-Thr-Trp-Ser-Pro-Ala-Ser-Ile-Ser-Ala-Gly-NH2] (H-MSEWITWSPASISAG-NH2)",24.5±4.9%
6,"C[C@H](NC(=O)[C@H](C)NC(=O)[C@H](CO)NC(=O)[C@H](Cc1c[nH]c2ccccc12)NC(=O)[C@@H]1CCCN1C(=O)[C@H](CO)NC(=O)[C@H](Cc1c[nH]c2ccccc12)NC(=O)[C@H](CC(N)=O)NC(=O)[C@H](CO)NC(=O)[C@@H](N)Cc1ccc(O)cc1)C(=O)N[C@@H](CO)C(=O)N[C@@H](CO)C(=O)N[C@@H](CO)C(=O)N[C@H](C(=O)N[C@@H](C)C(=O)N[C@@H](CC(=O)O)C(N)=O)[C@@H](C)O [Compound 3, H-Tyr-Ser-Asn-Trp-Ser-Pro-Trp-Ser-Ala-Ala-Ser-Ser-Ser-Thr-Ala-Asp-NH2] (H-YSNWSPWSAASSSTAD-NH2)",12.3±10.0%
7,"CSCC[C@H](NC(=O)[C@H](CCCNC(=N)N)NC(=O)[C@H](CCCCN)NC(=O)CNC(=O)[C@H](CCCCN)NC(=O)[C@@H](N)CC(=O)O)C(=O)N[C@@H](CCCNC(=N)N)C(=O)N[C@@H](CCC(N)=O)C(=O)N[C@@H](CCCNC(=N)N)C(=O)N[C@@H](CCSC)C(=O)N[C@@H](CC(C)C)C(=O)N[C@@H](CCCCN)C(=O)N[C@@H](C)C(=O)N[C@@H](CCC(N)=O)C(=O)N[C@@H](CC(C)C)C(N)=O [Compound 7, H-Asp-Lys-Gly-Lys-Arg-Met-Arg-Gln-Arg-Met-Leu-Lys-Ala-Gln-Leu-NH2] (H-DKGKRMRQRMLKAQL-NH2)",9.3±1.6%
8,"CSCC[C@H](NC(=O)[C@H](Cc1ccc(O)cc1)NC(=O)[C@@H](N)CCCNC(=N)N)C(=O)N[C@H](C(=O)N[C@H](C(=O)N[C@@H](CCCCN)C(=O)N[C@@H](CCCCN)C(=O)N[C@@H](CCCNC(=N)N)C(=O)N[C@@H](Cc1ccccc1)C(=O)N[C@@H](CCCCN)C(=O)N[C@@H](CO)C(=O)N[C@@H](CO)C(=O)N[C@@H](CCC(N)=O)C(=O)N[C@@H](Cc1ccccc1)C(=O)N[C@H](C(N)=O)[C@@H](C)O)C(C)C)[C@@H](C)O [Compound 11, H-Arg-Tyr-Met-Thr-Val-Lys-Lys-Arg-Phe-Lys-Ser-Ser-Gln-Phe-Thr-NH2] (H-RYMTVKKRFKSSQFT-NH2)",12.2±10.7%
9,"CC[C@H](C)[C@H](NC(=O)[C@H](CCSC)NC(=O)[C@H](CCCNC(=N)N)NC(=O)[C@@H](NC(=O)[C@H](CCCNC(=N)N)NC(=O)[C@@H](NC(=O)[C@@H](NC(=O)[C@H](Cc1c[nH]cn1)NC(=O)CNC(=O)[C@H](CCCCN)NC(=O)CN)C(C)C)[C@@H](C)CC)[C@@H](C)O)C(=O)N[C@@H](CCC(N)=O)C(=O)N[C@@H](CCSC)C(=O)N[C@@H](CCC(=O)O)C(N)=O [Compound 9, H-Gly-Lys-Gly-His-Val-Ile-Arg-Thr-Arg-Met-Ile-Gln-Met-Glu-NH2] (H-GKGHVIRTRMIQME-NH2)",3.9±1.6%
10,"CC(C)C[C@H](NC(=O)[C@H](CO)NC(=O)[C@@H](N)CC(C)C)C(=O)N[C@@H](Cc1c[nH]c2ccccc12)C(=O)N[C@@H](CO)C(=O)N[C@@H](CCC(=O)O)C(=O)N[C@@H](Cc1c[nH]c2ccccc12)C(=O)N[C@@H](CO)C(=O)N[C@@H](CC(=O)O)C(=O)N[C@@H](C)C(=O)N[C@@H](CO)C(=O)N[C@H](C(=O)N[C@H](C(=O)N[C@@H](C)C(=O)NCC(N)=O)[C@@H](C)O)C(C)C [Compound 2, H-Leu-Ser-Leu-Trp-Ser-Glu-Trp-Ser-Asp-Ala-Ser-Val-Thr-Ala-Gly-NH2] (H-LSLWSEWSDASVTAG-NH2)",41.5±2.1%
11,"CC[C@H](C)[C@H](NC(=O)[C@H](CCSC)NC(=O)[C@H](CCCNC(=N)N)NC(=O)[C@H](Cc1c[nH]cn1)NC(=O)[C@H](CCCNC(=N)N)NC(=O)[C@H](CCCCN)NC(=O)[C@H](CCCCN)NC(=O)[C@@H](N)CCSC)C(=O)N[C@@H](CCCCN)C(=O)N[C@@H](CCSC)C(=O)N[C@@H](CC(N)=O)C(=O)N1CCC[C@H]1C(=O)N[C@@H](C)C(=O)N[C@@H](CC(=O)O)C(=O)NCC(N)=O [Compound 8, H-Met-Lys-Lys-Arg-His-Arg-Met-Ile-Lys-Met-Asn-Pro-Ala-Asp-Gly-NH2] (H-MKKRHRMIKMNPADG-NH2)",7.2±1.2%
